From patent US20230123588A1, “METHODS OF SLOWING BRAIN VOLUME LOSS” (ACTELION PHARMACEUTICALS LTD, priority 2020, published 2023)

Key:
[1] = tested on: adult subjects with brain volume loss (relapsing multiple sclerosis); conditions: human, in vivo
Text: Based on the individual case review, most ALT/AST increases ≥3×ULN occurred as a single transient asymptomatic episode, resolving with continued treatment or after protocol mandated treatment discontinuation. All but one case of bilirubin increase ≥2×ULN occurred in subjects with pre-treatment bilirubin increases. One case of potential Hy's law occurred in a subject with pre-existing transaminase elevation (ALT>5×ULN), and the event fully resolved within 2 weeks after treatment discontinuation.

[2] = tested on: adult subjects with brain volume loss (relapsing multiple sclerosis); assay: Treatment-emergent adverse events, AESIs and deaths (Safety Set); assay type: in vivo, human; conditions: Ponesimod 20 mg N = 565, Teriflunomide 14 mg N = 566
Description: The most common AESIs were reported for category hepatobiliary disorders/liver enzyme abnormality (25.7% vs 14.5% in ponesimod 20 mg compared to teriflunomide 14 mg, respectively), followed by category hypertension (10.1% vs 9.0%), and pulmonary events (8.0% vs 2.7%).

[3] = tested on: adult subjects with brain volume loss (relapsing multiple sclerosis); assay: Reasons for premature treatment discontinuation in the study; assay type: in vivo; conditions: for subjects discontinued due to AEs or tolerability related reasons / subjects discontinued due to efficacy related reasons: ponesimod 20 mg, teriflunomide 14 mg
Description: A total of 1468 subjects were screened. Of those, 1133 subjects were randomized (567 to ponesimod 20 mg and 566 to teriflunomide 14 mg) across 162 sites in 28 countries, and 1131 subjects received at least one dose of study drug. The disposition of subjects is summarized in Table 1 and a summary of reasons (primary reason) for treatment discontinuation are shown in Table 2. Overall treatment and study discontinuation were balanced across both treatment arms. A total of 6.5% and 2.5% of the subjects discontinued due to AEs or tolerability related reasons in ponesimod 20 mg and teriflunomide 14 mg, respectively, while 1.9% and 4.3% discontinued due to efficacy related reasons. There were 2 deaths reported during the study—both on teriflunomide 14 mg.

[4] = tested on: adult subjects with brain volume loss (relapsing multiple sclerosis); assay: Percent change in brain volume from baseline (MRI, SIENA) in randomized double-blind study of ponesimod vs teriflunomide; assay type: in vivo, human; conditions: for LS Mean difference in percent change in brain volume (Ponesimod 20 mg − Teriflunomide 14 mg) / LS Mean percent change in brain volume from baseline: Week 108; for brain volume loss (BVL) up to EOS: teriflunomide 14 mg
Description: Main analysis set for efficacy: The Full Analysis Set (FAS) included all randomized subjects. Subjects were evaluated according to the treatment they were randomized to.
Efficacy variable/timepoint: The endpoint was brain volume loss up to the end of study (EOS). All available data up to EOS, regardless of treatment discontinuation was included (ITT approach).
Using a mixed model with linear time effect (adjusted for stratification factors, presence/absence of GD+T1 lesions at baseline, and normalized brain volume at baseline), the LS mean percent change from baseline to Week 108 in brain volume was −0.91% in the ponesimod 20 mg group (n=436) and −1.25% in the teriflunomide 14 mg group (n=434). The LS mean difference (ponesimod 20 mg—teriflunomide 14 mg) was 0.34% (95% CLs: 0.17, 0.50; p<0.0001).
Results of the analysis using a repeated measurements ANOVA model (MMRM) were consistent with that described above with respect to the mixed model with linear time effect.

[5] = tested on: adult subjects with brain volume loss (relapsing multiple sclerosis); assay: as above; assay type: in vivo, human; conditions: Week 60
[6] = tested on: adult subjects with brain volume loss (relapsing multiple sclerosis); assay: 12-lead ECG heart rate and first-dose monitoring on Day 1; assay type: in vivo, human; conditions: for mean heart rate reduction compared to pre-dose: Day 1, 2-hours post dose, 12-lead ECG, ponesimod 20 mg arm, teriflunomide 14 mg; for subjects with asymptomatic post-dose HR≤40 bpm: Day 1, all had pre-treatment HR<55 bpm
Description: The incidence of treatment-emergent heart rate and rhythm (including hypotension) AESIs on Day 1 was higher in the ponesimod 20 mg arm (2.1%) than in the teriflunomide 14 mg arm (0.4%). However, the overall incidence of first dose AESI on Day 1 was low (2.1%) in ponesimod. None of these events were serious nor led to permanent discontinuation of study treatment. Discharge criteria at 4 hours post-dose were met for ca. 99% of subjects. […] ECG HR effect: nadir at 2 hours post-dose (siponimod—3-4 hours, fingolimod—around by 6 hours). Low incidence of low HR outliers (post-dose HR≤40 bpm), all 3 of them with a pre-treatment HR of <55 bpm, which is a known risk factor for post-dose bradycardia with S1P receptor modulators.
The mean heart rate reduction compared to pre-dose reached a maximum for ponesimod 20 mg at 2-hours post dose, −8.7 bpm compared to −1.7 bpm for teriflunomide 14 mg (FIG. 2).

[7] = other S1P receptor modulators, given for comparison; cited from earlier work
[8] = Safety Set, Ponesimod 20 mg N = 565, Teriflunomide 14 mg N = 566
[9] = mixed model with linear time effect
[10] = mixed model with linear time effect, Ponesimod 20 mg (436 subjects), Teriflunomide 14 mg (434 subjects)
[11] = repeated measurements ANOVA model (MMRM)
[12] = repeated measurements ANOVA model (MMRM), Ponesimod 20 mg (418 subjects), Teriflunomide 14 mg (414 subjects)
[13] = ponesimod 20 mg, up to end of study

| SMILES | proportion of subjects who experienced ALT increase >8×ULN [1] | proportion of subjects who experienced ALT increase ≥3×ULN [1] | Subject with at least one Fatal AE [2] | Premature discontinuation: Death (number) [3, 8] | Premature discontinuation: Physician decision, Adverse event (number) [3, 8] | Premature discontinuation: Physician decision, Adverse event (percent) [3, 8] | Premature discontinuation: Physician decision, Lack of efficacy/treatment failure (number) [3, 8] | Premature discontinuation: Physician decision, Lack of efficacy/treatment failure (percent) [3, 8] | Premature discontinuation: Pre-specified study treatment discontinuation criteria (number) [3, 8] | Premature discontinuation: Pre-specified study treatment discontinuation criteria (percent) [3, 8] | Premature discontinuation: Subject decision, Efficacy related (number) [3, 8] | Premature discontinuation: Subject decision, Efficacy related (percent) [3, 8] | Premature discontinuation: Subject decision, Tolerability related (number) [3, 8] | Premature discontinuation: Subject decision, Tolerability related (percent) [3, 8] | subjects discontinued due to AEs or tolerability related reasons [3] | subjects discontinued due to efficacy related reasons [3] | LS Mean percent change in brain volume from baseline [4, 10] | LS Mean percent change in brain volume from baseline [4, 12] | brain volume loss (BVL) up to EOS [4, 13] | LS Mean percent change in brain volume from baseline [5, 10] | further results |
| --- | --- | --- | --- | --- | --- | --- | --- | --- | --- | --- | --- | --- | --- | --- | --- | --- | --- | --- | --- | --- | --- |
| CCC/N=C1\S/C(=C\c2ccc(OC[C@H](O)CO)c(Cl)c2)C(=O)N1c1ccccc1C [Ponesimod, (R)-5-[3-chloro-4-(2,3-dihydroxy-propoxy)-benz[Z]ylidene]-2-([Z]-propylimino)-3-o-tolyl-thiazolidin-4-one] | 0.7% | 17.3% | 0 n (%) | 0 n | 29 n | (5.1) % | 4 n | (0.7) % | 12 n | (2.1) % | 7 n | (1.2) % | 8 n | (1.4) % | 6.5% | 1.9% | −0.91% | −0.92% | −0.91% | −0.45% | LS Mean difference in percent change in brain volume (Ponesimod 20 mg − Teriflunomide 14 mg) [4, 9]: 0.34%; LS Mean difference in percent change in brain volume (Ponesimod 20 mg − Teriflunomide 14 mg) [4, 11]: 0.34%; reduction of brain volume loss up to EOS compared to teriflunomide 14 mg ([4]; ponesimod 20 mg): about 27%; efficacy in slowing brain volume loss over teriflunomide (conclusion) ([4]; ponesimod 20 mg vs teriflunomide 14 mg): superior efficacy; difference in BVL up to EOS, ponesimod 20 mg vs teriflunomide 14 mg ([4]; up to end of study, p<0.0001): 0.34%; LS Mean difference in percent change in brain volume (Ponesimod 20 mg − Teriflunomide 14 mg) [5, 9]: 0.08%; LS Mean difference in percent change in brain volume (Ponesimod 20 mg − Teriflunomide 14 mg) [5, 11]: 0.13%; LS Mean percent change in brain volume from baseline [5, 12]: −0.43%; mean heart rate reduction compared to pre-dose [6]: −8.7 bpm; 2nd or higher degree AV block ([6]; Day 1, first dose): No 2nd or higher degree AV block was observed; subjects meeting discharge criteria at 4 hours post-dose ([6]; Day 1, first dose): ca. 99%; time of ECG HR nadir (maximum mean heart rate reduction) post-dose ([6]; Day 1, first dose): 2 h; subjects with asymptomatic post-dose HR≤40 bpm [6]: 3 subjects |
| C/C(O)=C(\C#N)C(=O)Nc1ccc(C(F)(F)F)cc1 [Teriflunomide] | 2.1% | 8.3% | 2 (0.4) n (%) | 2 n | 9 n | (1.6) % | 10 n | (1.8) % | 16 n | (2.8) % | 14 n | (2.5) % | 5 n | (0.9) % | 2.5% | 4.3% | −1.25% | −1.26% | −1.25% | −0.53% | Premature discontinuation: Death (percent) [3, 8]: (0.4) %; LS Mean percent change in brain volume from baseline [5, 12]: −0.55%; mean heart rate reduction compared to pre-dose [6]: −1.7 bpm; subjects with asymptomatic post-dose HR≤40 bpm [6]: none |
| CCCCCCCCc1ccc(CCC(N)(CO)CO)cc1 [fingolimod] | – | – | – | – | – | – | – | – | – | – | – | – | – | – | – | – | – | – | – | – | time of ECG HR nadir post-dose [7]: ~6 h |
| CCc1cc(/C(C)=N/OCc2ccc(C3CCCCC3)c(C(F)(F)F)c2)ccc1CN1CC(C(=O)O)C1 [siponimod] | – | – | – | – | – | – | – | – | – | – | – | – | – | – | – | – | – | – | – | – | time of ECG HR nadir post-dose [7]: 3 to 4 h |
